In patent publication US20100298141A1, “SUBSTITUTED PYRIDINE N-OXIDE HERBICIDES” (E. I. DU PONT DE NEMOURS AND COMPANY, priority 2007, published 2010):

Experiments:
common mallow = assay: Test F preemergence test; type: in vivo, Malva sylvestris; settings: scale 0 to 100
Text: (§1) Seeds of plant species selected from bermudagrass (Cynodon dactylon), Surinam grass (Brachiaria decumbens), large crabgrass (Digitaria sanguinalis), green foxtail (Setaria viridis), goosegrass (Eleusine indica), johnsongrass (Sorghum halepense), kochia (Kochia scoparia), pitted morningglory (Ipomoea lacunosa), purple nutsedge (Cyperus rotundus), common ragweed (Ambrosia elation), mustard (Brassica nigra), guineagrass (Panicum maximum), […] (Paspalum dilatatum), barnyardgrass (Echinochloa crus-galli), southern sandbur (Cenchrus echinatus), common sowthistle (Sonchus oleraceous), prickly […] spinosa), Italian ryegrass (Lolium multiflorum), common purslane (Portulaca oleracea), broadleaf signalgrass (Brachiaria platyphylla), common groundsel (Senecio vulgaris), common chickweed (Stellaria media), Virginia dayflower (Commelina virginica), annual bluegrass (Poa annua), naked crabgrass (Digitaria nuda), […] cochinchinensis), quackgrass (Elytrigia repens), Canada horseweed (Conyza canadensis), field bindweed (Convolvulus arvensis), […] (Bidens bipinnata), common mallow (Malva sylvestris), Russian thistle (Salsola kali), and sugarcane (Saccharum officinarum) were planted and treated preemergence with test chemicals formulated in a non-phytotoxic solvent mixture which included a surfactant. At a different time, sugarcane was treated with postemergence applications of some of the test chemicals formulated in the same manner. Plants were approximately 3- to 4-leaf stage for the postemergence treatments. Treated plants and controls were maintained in a greenhouse for 14 to 21 days, after which time all species were compared to controls and visually evaluated. […] A dash (-) response means no test result.

kochia = assay: Test F preemergence test; type: in vivo, Kochia scoparia; settings: scale 0 to 100
How it was run: (§2)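 Test chemicals were formulated in a non-phytotoxic solvent mixture with surfactant and applied preemergence to planted seeds or postemergence to sugarcane plants. Plants were kept in a greenhouse for 14 to 21 days, then visually evaluated against controls.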

dallisgrass = assay: Test F preemergence test; type: in vivo, Paspalum dilatatum; settings: scale 0 to 100
How it was run: as §2

blackgrass = assay: Test C pre-/postemergence test; type: in vivo, Alopecurus myosuroides
How it was run: (§3)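 Seeds were planted and treated preemergence with test chemical in a non-phytotoxic solvent mixture containing surfactant. Postemergence applications of the same formulation went onto plants 2 to 18 cm tall (1- to 4-leaf stage). A dash marks no test result.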

corn = assay: Test A pre-/postemergence greenhouse test; type: in vivo, Zea mays; settings: for Plant response rating, Corn: 0 to 100 scale where 0 is no effect and 100 is complete control; for Corn plant response rating: 0 to 100 scale
How it was run: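 Greenhouse herbicide screen, pre- and postemergence in parallel. Soil: loam plus sand. Formulation: non-phytotoxic solvent mix with surfactant. Postemergence stage: one to two leaves, 2–10 cm height. Evaluation: visual injury, compared with untreated controls, about 10 days after treatment.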

Surinam grass = assay: Test F preemergence test; type: in vivo, Brachiaria decumbens; settings: scale 0 to 100
How it was run: as §2

quackgrass = assay: Test F preemergence test; type: in vivo, Elytrigia repens; settings: scale 0 to 100
How it was run: as §2

green foxtail = assay: Test C pre-/postemergence test; type: in vivo, Setaria viridis
How it was run: as §3

broadleaf signalgrass = assay: Test F preemergence test; type: in vivo, Brachiaria platyphylla; settings: scale 0 to 100
How it was run: as §2

Virginia dayflower = assay: Test F preemergence test; type: in vivo, Commelina virginica; settings: scale 0 to 100
Text: as §1

mustard = assay: Test F preemergence test; type: in vivo, Brassica nigra; settings: scale 0 to 100
How it was run: as §2

prickly sida = assay: Test F preemergence test; type: in vivo, Sida spinosa; settings: scale 0 to 100
How it was run: as §2

bermudagrass = assay: Test F preemergence test; type: in vivo, Cynodon dactylon; settings: scale 0 to 100
How it was run: as §2

common ragweed = assay: Test C pre-/postemergence test; type: in vivo, Ambrosia elation; settings: preemergence, scale 0 (no effect) to 100 (complete control)
How it was run: as §3

[1] = 62 g ai/ha, Preemergence, scale 0 to 100
[2] = 125 g ai/ha, preemergence, scale 0 (no effect) to 100 (complete control)
[3] = Preemergence, 31 g ai/ha, scale 0 to 100 (0 no effect, 100 complete control)
[4] = preemergence, 250 g ai/ha, scale 0 (no effect) to 100 (complete control)

## CC(Oc1c(C[S+]([O-])c2ccc(Cl)c[n+]2[O-])c(C(F)(F)F)nn1C)C(F)(F)F (stereo not drawn) [Compound 87]
Common mallow; 16 g ai/ha, preemergence
  Plant response rating, Mallow: 50
Common mallow; 125 g ai/ha, preemergence
  Mallow plant response rating: 100
Common mallow; Preemergence, 62 g ai/ha
  Plant response rating, Mallow: 100
Common mallow; Preemergence, 31 g ai/ha
  Plant response rating, Mallow: 75
kochia; 16 g ai/ha, preemergence
  Plant response rating, Kochia: 0
kochia; 125 g ai/ha, preemergence
  Kochia plant response rating: 50
kochia; Preemergence, 62 g ai/ha
  Plant response rating, Kochia: 50
kochia; Preemergence, 31 g ai/ha
  Plant response rating, Kochia: 0
dallisgrass; 16 g ai/ha, preemergence
  Plant response rating, Dallisgrass: 0
dallisgrass; 125 g ai/ha, preemergence
  Dallisgrass plant response rating: 80
dallisgrass; Preemergence, 62 g ai/ha
  Plant response rating, Dallisgrass: 60
dallisgrass; Preemergence, 31 g ai/ha
  Plant response rating, Dallisgrass: 50
blackgrass; [1]
  Blackgrass plant response rating: 100
blackgrass; [2]
  Blackgrass plant response rating: 100
blackgrass; [3]
  Plant response rating, Blackgrass: 100
blackgrass; [4]
  Blackgrass plant response rating: 100
corn; Postemergence, 125 g ai/ha
  Plant response rating, Corn: 60
corn; Postemergence, 500 g ai/ha, 0 is no effect, 100 is complete control
  Corn plant response rating: 70
corn; Preemergence, 125 g ai/ha, 0 no effect, 100 complete control
  Corn plant response rating: 40
corn; Preemergence, 500 g ai/ha
  Plant response rating, Corn: 90
Surinam grass; 16 g ai/ha, preemergence
  Plant response rating, Surinam Grass: 65
Surinam grass; 125 g ai/ha, preemergence
  Surinam Grass plant response rating: 100
Surinam grass; Preemergence, 62 g ai/ha
  Plant response rating, Surinam Grass: 100
Surinam grass; Preemergence, 31 g ai/ha
  Plant response rating, Surinam Grass: 100
quackgrass; 16 g ai/ha, preemergence
  Plant response rating, Quackgrass: 60
quackgrass; 125 g ai/ha, preemergence
  Quackgrass plant response rating: 90
quackgrass; Preemergence, 62 g ai/ha
  Plant response rating, Quackgrass: 80
quackgrass; Preemergence, 31 g ai/ha
  Plant response rating, Quackgrass: 60
Green foxtail; [1]
  Foxtail, Green plant response rating: 100
Green foxtail; [2]
  Foxtail, Green plant response rating: 100
Green foxtail; [3]
  Plant response rating, Foxtail, Green: 95
Green foxtail; [4]
  Foxtail, Green plant response rating: 100
Broadleaf signalgrass; 16 g ai/ha, preemergence
  Plant response rating, Signalgrass: 0
Broadleaf signalgrass; 125 g ai/ha, preemergence
  Signalgrass plant response rating: 95
Broadleaf signalgrass; Preemergence, 62 g ai/ha
  Plant response rating, Signalgrass: 65
Broadleaf signalgrass; Preemergence, 31 g ai/ha
  Plant response rating, Signalgrass: 15
Virginia dayflower; 16 g ai/ha, preemergence
  Plant response rating, Dayflower: 35
Virginia dayflower; 125 g ai/ha, preemergence
  Dayflower plant response rating: 100
Virginia dayflower; Preemergence, 62 g ai/ha
  Plant response rating, Dayflower: 100
Virginia dayflower; Preemergence, 31 g ai/ha
  Plant response rating, Dayflower: 100
mustard; 16 g ai/ha, preemergence
  Plant response rating, Black Mustard: 0
mustard; 125 g ai/ha, preemergence
  Black Mustard plant response rating: 100
mustard; Preemergence, 62 g ai/ha
  Plant response rating, Black Mustard: 90
mustard; Preemergence, 31 g ai/ha
  Plant response rating, Black Mustard: 30
Prickly sida; 16 g ai/ha, preemergence
  Plant response rating, Prickly Sida: 0
Prickly sida; 125 g ai/ha, preemergence
  Prickly Sida plant response rating: 100
Prickly sida; Preemergence, 62 g ai/ha
  Plant response rating, Prickly Sida: 75
Prickly sida; Preemergence, 31 g ai/ha
  Plant response rating, Prickly Sida: 50
bermudagrass; 16 g ai/ha, preemergence
  Plant response rating, Bermudagrass: 25
bermudagrass; 125 g ai/ha, preemergence
  Bermudagrass plant response rating: 95
bermudagrass; Preemergence, 62 g ai/ha
  Plant response rating, Bermudagrass: 70
bermudagrass; Preemergence, 31 g ai/ha
  Plant response rating, Bermudagrass: 60
Common ragweed; 125 g ai/ha
  Ragweed plant response rating: 70
Common ragweed; 250 g ai/ha
  Ragweed plant response rating: 80
